Results from ChEMBL document CHEMBL3813645, “Design, synthesis of 2,3-disubstitued 4(3H)-quinazolinone derivatives as anti-inflammatory and analgesic agents: COX-1/2 inhibitory activities and molecular docking studies” (Bioorg Med Chem, 2016).

Columns and labels:
Rattus norvegicus = test: Antiinflammatory activity in ip dosed rat carrageenan-induced foot paw edema model measured after 2 hrs by plethysmometric analysis; type: functional
Mus musculus = test: Analgesic activity in ip dosed albino Swiss mouse assessed as nociceptive response measured after 60 mins by hot plate method; type: functional; conditions: 1 h
[1] = biological target: T1, Prostaglandin G/H synthase 1 (Ovis aries, UniProt P05979); test: Inhibition of ovine COX1 using arachidonic acid as substrate preincubated for 5 mins followed by substrate addition by ELISA
T1 sequence (P05979 whole entry): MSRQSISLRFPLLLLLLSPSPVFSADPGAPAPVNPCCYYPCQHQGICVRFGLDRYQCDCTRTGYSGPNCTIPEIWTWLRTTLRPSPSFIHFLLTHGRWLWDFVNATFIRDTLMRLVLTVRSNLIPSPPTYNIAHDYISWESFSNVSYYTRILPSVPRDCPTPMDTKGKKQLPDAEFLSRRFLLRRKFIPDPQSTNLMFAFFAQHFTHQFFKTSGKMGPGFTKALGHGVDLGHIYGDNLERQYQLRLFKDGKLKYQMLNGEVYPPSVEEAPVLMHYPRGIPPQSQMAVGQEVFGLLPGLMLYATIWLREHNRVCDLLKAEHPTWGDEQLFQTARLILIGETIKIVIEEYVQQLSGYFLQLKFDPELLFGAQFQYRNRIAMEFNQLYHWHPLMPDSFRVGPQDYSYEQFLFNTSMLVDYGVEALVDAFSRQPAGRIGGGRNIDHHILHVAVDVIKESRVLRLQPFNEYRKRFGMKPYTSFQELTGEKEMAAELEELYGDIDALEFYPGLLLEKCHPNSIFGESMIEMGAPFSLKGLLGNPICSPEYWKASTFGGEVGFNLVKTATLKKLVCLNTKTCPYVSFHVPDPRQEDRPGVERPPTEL

COc1ccc(NC(=O)CSc2nc3ccccc3c(=O)n2CCc2ccccn2)cc1 was tested, and the ED50 (Rattus norvegicus) was 81.5 mg/kg, the ED50 (Mus musculus) was 111 mg/kg and the IC50 [1] was greater than 100 µM.
For O=C(CSc1nc2ccccc2c(=O)n1CCc1ccccn1)N/N=C/c1ccccc1, the ED50 (Rattus norvegicus) was 104 mg/kg and the ED50 (Mus musculus) was 54.5 mg/kg.
With COc1ccc(/C=N/NC(=O)CSc2nc3ccccc3c(=O)n2CCc2ccccn2)cc1OC the ED50 (Rattus norvegicus) was 112 mg/kg and the ED50 (Mus musculus) was 78.5 mg/kg.
Compound NNC(=O)CSc1nc2ccccc2c(=O)n1CCc1ccccn1 has an ED50 (Rattus norvegicus) of 74.5 mg/kg, an ED50 (Mus musculus) of 40.3 mg/kg and an IC50 [1] greater than 100 µM.
COc1ccc(C(=O)CSc2nc3ccccc3c(=O)n2CCc2ccccn2)cc1 gave an ED50 (Rattus norvegicus) greater than 200 mg/kg.
Work on O=C(CSc1nc2ccccc2c(=O)n1CCc1ccccn1)NNS(=O)(=O)c1ccc(Br)cc1 yielded an ED50 (Rattus norvegicus) greater than 200 mg/kg.
O=C(O)Cc1ccccc1Nc1c(Cl)cccc1Cl [DICLOFENAC] showed an ED50 (Rattus norvegicus) of 112 mg/kg and an ED50 (Mus musculus) of 100 mg/kg.
With O=C(CSc1nc2ccccc2c(=O)n1CCc1ccccn1)Nc1ccc(F)cc1 the ED50 (Rattus norvegicus) was 50.3 mg/kg, the ED50 (Mus musculus) was 12.3 mg/kg and the IC50 [1] was greater than 100 µM.
O=c1c2ccccc2nc(S)n1CCc1ccccn1 gave an ED50 (Rattus norvegicus) of 102 mg/kg, an ED50 (Mus musculus) of 98.2 mg/kg and an IC50 [1] greater than 100 µM.
O=C(CSc1nc2ccccc2c(=O)n1CCc1ccccn1)c1ccccc1 showed an ED50 (Rattus norvegicus) greater than 200 mg/kg.
O=C(CSc1nc2ccccc2c(=O)n1CCc1ccccn1)NCc1ccccc1 was tested, and the ED50 (Rattus norvegicus) was greater than 200 mg/kg.
For O=C(CSc1nc2ccccc2c(=O)n1CCc1ccccn1)Nc1ccccc1, the ED50 (Rattus norvegicus) was greater than 200 mg/kg.
In the case of O=C(CSc1nc2ccccc2c(=O)n1CCc1ccccn1)NNS(=O)(=O)c1ccccc1, the ED50 (Rattus norvegicus) is reported as greater than 200 mg/kg.
In the case of COc1cc(/C=N/NC(=O)CSc2nc3ccccc3c(=O)n2CCc2ccccn2)cc(OC)c1OC, the ED50 (Rattus norvegicus) is reported as greater than 200 mg/kg.
Work on CCOC(=O)CSc1nc2ccccc2c(=O)n1CCc1ccccn1 yielded an ED50 (Rattus norvegicus) greater than 200 mg/kg.
With NC(=O)CSc1nc2ccccc2c(=O)n1CCc1ccccn1 the ED50 (Rattus norvegicus) was greater than 200 mg/kg.
O=C(CSc1nc2ccccc2c(=O)n1CCc1ccccn1)N/N=C/c1ccc(Cl)cc1 gave an ED50 (Rattus norvegicus) of 66.6 mg/kg and an ED50 (Mus musculus) of 33.7 mg/kg.
O=C(CSc1nc2ccccc2c(=O)n1CCc1ccccn1)c1ccc(F)cc1 was tested, and the ED50 (Rattus norvegicus) was 91.2 mg/kg, the ED50 (Mus musculus) was 78.1 mg/kg and the IC50 [1] was greater than 100 µM.
Compound COc1ccc(/C=N/NC(=O)CSc2nc3ccccc3c(=O)n2CCc2ccccn2)cc1 has an ED50 (Rattus norvegicus) of 67.5 mg/kg and an ED50 (Mus musculus) of 50.3 mg/kg.
Cc1ccc(-c2cc(C(F)(F)F)nn2-c2ccc(S(N)(=O)=O)cc2)cc1 [CELECOXIB] gave an ED50 (Mus musculus) of 71 mg/kg.
For COc1cc(NC(=O)CCSc2nc3ccccc3c(=O)n2CCc2ccccn2)cc(OC)c1OC, the ED50 (Rattus norvegicus) was 74.2 mg/kg, the ED50 (Mus musculus) was 80.3 mg/kg and the IC50 [1] was greater than 100 µM.
COc1ccc(S(=O)(=O)NNC(=O)CSc2nc3ccccc3c(=O)n2CCc2ccccn2)cc1OC was tested, and the ED50 (Rattus norvegicus) was greater than 200 mg/kg.
COc1cc(NC(=O)CSc2nc3ccccc3c(=O)n2CCc2ccccn2)cc(OC)c1OC showed an ED50 (Rattus norvegicus) of 65.3 mg/kg, an ED50 (Mus musculus) of 60.3 mg/kg and an IC50 [1] greater than 100 µM.
